Read-outs that look alike come from different tables or passages of the source.
Experiments:
Spodoptera frugiperda = Spodoptera frugiperda spray test; assay type: in vivo; conditions: foliar, 168 h, sprayed maize leaf discs, fall armyworm caterpillars, after 7 days, read-out: efficacy
Experimental: Spodoptera frugiperda—Spray Test [table] To produce a suitable active compound preparation, 1 part by weight of active compound is dissolved using the stated parts by weight of solvent and made up with water containing an emulsifier concentration of 1000 ppm until the desired concentration is attained. To produce further test concentrations, the formulation is diluted with emulsifier-containing water. Leaf discs of maize (Zea mays) are sprayed with an active compound formulation of the desired concentration and, after drying, populated with caterpillars of the fall armyworm (Spodoptera frugiperda). After 7 days, the efficacy in % is determined. 100% means that all the caterpillars have been killed; 0% means that no caterpillar has been killed.

Myzus persicae [1] = test: Myzus persicae oral test; assay type: in vivo; conditions: 120 h, mixed population of green peach aphids, after 5 days, read-out: efficacy
Experimental: Myzus persicae—Oral Test [table] To produce a suitable preparation of active compound, 1 part by weight of active compound is dissolved using the specified parts by weight of solvent and made up with water until the desired concentration is attained. 50 μl of the active ingredient formulation are transferred into microtitre plates and made up to a final volume of 200 μl with 150 μl of IPL41 insect medium (33%+15% sugar). Subsequently, the plates are sealed with parafilm, which a mixed population of green peach aphids (Myzus persicae) within a second microtitre plate is able to puncture and imbibe the solution through. After 5 days, the efficacy in % is determined. 100% means that all the aphids have been killed; 0% means that no aphids have been killed.

Diabrotica balteata = Diabrotica balteata spray test; assay type: in vivo; conditions: 168 h, 160 μg/well, sprayed germinated wheat grains, beetle larvae, after 7 days, read-out: efficacy
Experimental: Diabrotica balteata—Spray Test [table] To produce a suitable active compound preparation, 1 part by weight of active compound is dissolved using the stated parts by weight of solvent and made up with water containing an emulsifier concentration of 1000 ppm until the desired concentration is attained. To produce further test concentrations, the formulation is diluted with emulsifier-containing water. Pre-swollen wheat grains (Triticum aestivum) are incubated in a multiwell plate filled with agar and a little water for one day (5 seed grains per well). The germinated wheat grains are sprayed with an active compound preparation of the desired concentration. Subsequently, each cavity is infected with 10-20 beetle larvae of Diabrotica balteata. After 7 days, the efficacy in % is determined. 100% means that all wheat plants have grown as in the untreated, uninfected control; 0% means that no wheat plant has grown.

Myzus persicae [2] = test: Myzus persicae spray test; assay type: in vivo; conditions: foliar, 120 h, sprayed Chinese cabbage leaf discs, all stages of the green peach aphid, after 5 days, read-out: efficacy
Experimental: Myzus persicae—Spray Test [table] To produce a suitable active compound preparation, 1 part by weight of active compound is dissolved using the stated parts by weight of solvent and made up with water containing an emulsifier concentration of 1000 ppm until the desired concentration is attained. To produce further test concentrations, the formulation is diluted with emulsifier-containing water. Discs of Chinese cabbage leaves (Brassica pekinensis) infested by all stages of the green peach aphid (Myzus persicae) are sprayed with an active compound formulation of the desired concentration. After 5 days, the efficacy in % is determined. 100% means that all the aphids have been killed; 0% means that no aphids have been killed.

Ctenocephalides felis = Ctenocephalides felis oral test; assay type: in vivo; conditions: 48 h, 100 ppm in citrated cattle blood, unfed adult cat fleas, after 2 days, read-out: efficacy (kill in %)
Experimental: Ctenocephalides felis—Oral Test [table] To produce a suitable active compound preparation, 10 mg of active compound are mixed with 0.5 ml of dimethyl sulfoxide. Dilution with citrated cattle blood gives the desired concentration. About 20 unfed adult cat fleas (Ctenocephalides felis) are placed into a chamber which is closed at the top and bottom with gauze. A metal cylinder whose bottom end is closed with parafilm is placed onto the chamber. The cylinder contains the blood/active compound formulation, which can be imbibed by the fleas through the parafilm membrane. After 2 days, the kill in % is determined. 100% means that all of the fleas have been killed; 0% means that none of the fleas have been killed.

[3] = log P by HPLC on reversed-phase column (C18), EEC Directive 79/831 Annex V.A8; assay type: physicochemical
Experimental: The log P values were determined according to EEC Directive 79/831 Annex V.A8 by HPLC (high-performance liquid chromatography) on a reversed-phase column (C18) using the following methods: ^[a] […] Calibration was carried out using a homologous series of straight-chain alkan-2-ones (having 3 to 16 carbon atoms) with known log P values. The values between successive alkanones are determined by linear regression.

Phaedon cochleariae = Phaedon cochleariae spray test; assay type: in vivo; conditions: 100 g/ha, sprayed Chinese cabbage leaf discs, mustard beetle larvae, after 7 days
Experimental: Phaedon cochleariae—Spray Test
To produce a suitable active compound preparation, 1 part by weight of active compound is dissolved using the stated parts by weight of solvent and made up with water containing an emulsifier concentration of 1000 ppm until the desired concentration is attained. To produce further test concentrations, the formulation is diluted with emulsifier-containing water.
Discs of Chinese cabbage leaves (Brassica pekinensis) are sprayed with an active compound formulation of the desired concentration and, after drying, populated with larvae of the mustard beetle (Phaedon cochleariae).
After 7 days, the efficacy in % is determined. 100% means that all the beetle larvae have been killed; 0% means that no beetle larvae have been killed.

SMILES	pest or weed control at 100 g/ha (Spodoptera frugiperda) [%]	pest or weed control at 4 ppm (Myzus persicae [1]) [%]	pest or weed control at 160 µg/disc, 160 µg/well (Diabrotica balteata) [%]	pest or weed control at 100 g/ha (Myzus persicae [2]) [%]	pest or weed control at 100 ppm (Ctenocephalides felis) [%]	chromatographic logP ([3]; LC-UV in the acidic range, formic acid in water / acetonitrile, read-out: log P[acidic])	chromatographic logP ([3]; LC-UV in the neutral range, ammonium carbonate in water / acetonitrile, read-out: log P[neutral])	efficacy (Phaedon cochleariae) [%]
CCS(=O)(=O)c1c(-c2nc3cc(C(F)(F)C(F)(F)F)cnc3n2C)nc(-c2cnn(-c3ccccc3C#N)c2)n1C [Example I-18]	100	100	80	70	–	–	–	–
CCS(=O)(=O)c1c(-c2nc3cc(C(F)(F)F)cnc3n2C)nc(C2CC(c3cccnc3)=NO2)n1C (centres unmarked) [Example I-4]	–	100	–	100	–	–	–	–
CCS(=O)(=O)c1c(-c2nc3cc(C(F)(F)F)cnc3n2C)nc(-c2ccc(-c3ccccc3)s2)n1C [Example I-11]	100	100	–	90	90	–	–	–
CCS(=O)(=O)c1c(-c2nc3cc(C(F)(F)C(F)(F)F)cnc3n2C)nc(-n2cc(C#N)c(-c3ccc(F)cc3)c2)n1C [Example I-26]	100	100	100	–	–	–	–	–
CCS(=O)(=O)c1c(-c2nc3cc(C(F)(F)C(F)(F)F)cnc3n2C)nc(-c2cnn(-c3cccc(C#N)c3)c2)n1C [Example I-19]	100	100	100	–	–	–	–	–
CCS(=O)(=O)c1c(-c2nc3cc(C(F)(F)F)cnc3n2C)nc(C2CC(c3ccccn3)=NO2)n1C (centres unmarked) [Example I-3]	100	100	–	90	–	–	–	–
CCS(=O)(=O)c1c(-c2nc3cc(C(F)(F)F)cnc3n2C)nc(C2CC(C3CC3)=NO2)n1C (centres unmarked) [Example I-1, 2-[2-(3-Cyclopropyl-4,5-dihydro-1,2-oxazol-5-yl)-5-(ethylsulfonyl)-1-methyl-1H-imidazol-4-yl]-3-methyl-6-(trifluoromethyl)-3H-imidazo[4,5-b]pyridine]	–	100	–	100	100	2.73	2.72	–
CCS(=O)(=O)c1c(-c2nc3cc(C(F)(F)F)cnc3n2C)nc(-c2ccnn2C2CC2)n1C [Example I-7]	–	100	–	90	–	–	–	100
CCS(=O)(=O)c1c(-c2nc3cc(C(F)(F)F)cnc3n2C)nc(-c2cccc(C3(C#N)CC3)c2)n1C [Example I-12]	100	100	100	90	–	–	–	–
CCS(=O)(=O)c1c(-c2nc3cc(C(F)(F)F)cnc3n2C)nc(-c2ccc(-c3cccs3)s2)n1C [Example I-13]	–	100	80	90	–	–	–	–
CCS(=O)(=O)c1c(-c2nc3cc(C(F)(F)C(F)(F)F)cnc3n2C)nc(-c2cccc(C3(C#N)CC3)c2)n1C [Example I-24]	100	100	100	–	–	–	–	–
CCS(=O)(=O)c1c(-c2nc3cc(C(F)(F)F)cnc3n2C)nc(-c2ccc(C3CC3)s2)n1C [Example I-8]	100	100	–	100	80	–	–	–
CCS(=O)(=O)c1c(-c2nc3cc(C(F)(F)C(F)(F)F)cnc3n2C)nc(-c2cnn(-c3cncc(F)c3)c2)n1C [Example I-20]	100	100	100	100	–	–	–	–
CCS(=O)(=O)c1c(-c2nc3cc(C(F)(F)C(F)(F)F)cnc3n2C)nc(-c2cnn(C3CC3)c2)n1C [Example I-16]	100	100	100	90	–	–	–	–
CCS(=O)(=O)c1c(-c2nc3cc(C(F)(F)C(F)(F)F)cnc3n2C)nc(-c2ccc(C3CC3)nc2)n1C [Example I-22]	100	100	100	90	–	–	–	–
CCS(=O)(=O)c1c(-c2nc3cc(C(F)(F)C(F)(F)F)cnc3n2C)nc(-n2ccc(C3CC3)n2)n1C [Example I-21]	100	100	100	90	–	–	–	–
CCS(=O)(=O)c1c(-c2nc3cc(C(F)(F)F)cnc3n2C)nc(C2CC(c3ccc(Cl)cc3)=NO2)n1C (centres unmarked) [Example I-2]	100	100	–	–	–	–	–	–
CCS(=O)(=O)c1c(-c2nc3cc(C(F)(F)C(F)(F)F)cnc3n2C)nc(-c2cccc(N3CCOCC3)n2)n1C [Example I-23]	100	100	100	–	–	–	–	–
CCS(=O)(=O)c1c(-c2nc3cc(C(F)(F)C(F)(F)F)cnc3n2C)nc(-c2ccc(C3(C#N)CC3)cc2)n1C [Example I-15]	100	100	100	90	–	–	–	–
CCS(=O)(=O)c1c(-c2nc3cc(C(F)(F)C(F)(F)F)cnc3n2C)nc(-n2cc(C#N)c(-c3ccccc3F)c2)n1C [Example I-25]	100	–	100	–	–	–	–	–
CCS(=O)(=O)c1c(-c2nc3cc(C(F)(F)C(F)(F)F)cnc3n2C)nc(-c2cnn(-c3ccc(F)cc3)c2)n1C [Example I-17]	100	100	100	–	–	–	–	–

Reference: patent US11926623B2, “Heterocycle derivatives as pesticides” (Bayer Aktiengesellschaft, priority 2018, dated 2024)
